Laboratory results: PubChem BioAssay AID2060885 (Molecular Pharmacology Branch, DTP, NCI, 2025)
pIC50: −log10 of the molar value.

Tested on: NCI-H23 complex spheroids with HUVEC/MSC, viability
Experiment: Anticancer human tumor NCI-H23 cell line growth inhibition [RAS];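 also: spheroids exposed to compound for 7 days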;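 as to viability, T/C: 100% = DMSO vehicle control viability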
Details: for pIC50: curve of first compound; for viability, T/C: stronger effect = lower value
Outline: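 Agents were tested in combination matrices in half-log decrements from a top concentration at or near clinical Cmax (10 microM if undetermined). Targets were multi-cell spheroids of tumour lines plus HUVEC and MSC stromal cells.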

[1] = second compound 0.00316 µM, first compound 0.0316 µM
[2] = second compound 0.00316 µM, first compound 0.1 µM
[3] = second compound 0.01 µM, first compound 0.0316 µM
[4] = second compound 0.01 µM, first compound 0.1 µM
[5] = second compound 0.0316 µM, first compound 0.0316 µM
[6] = second compound 0.0316 µM, first compound 0.1 µM
[7] = second compound 0.1 µM, first compound 0.0316 µM
[8] = second compound 0.1 µM, first compound 0.1 µM
[9] = second compound 0.316 µM, first compound 0.0316 µM
[10] = second compound 0.316 µM, first compound 0.1 µM
[11] = second compound 1 µM, first compound 0.0316 µM
[12] = second compound 1 µM, first compound 0.1 µM

In the case of `CC(C)NCC(C(=O)N1CCN(c2ncnc3c2C(C)CC3O)CC1)c1ccc(Cl)cc1` (centres undefined) + C=CC(=O)N1CCN(c2nc(OCC3CCCN3C)nc3c(F)c(-c4nc(N)cc(C)c4C(F)(F)F)c(Cl)cc23)C(C)C1, the pIC50 (second compound 0.00316 µM) was 6.26, the pIC50 (second compound 0.01 µM) was 7.07 and the pIC50 (second compound 0.0316 µM) was greater than 7.50. For the same molecule, the pIC50 (second compound 0.1 µM) was greater than 7.50, the pIC50 (second compound 0.316 µM) was greater than 7.50 and the pIC50 (second compound 1 µM) was greater than 7.50. The viability, T/C [1] was 57.1%, the viability, T/C [2] was 67.7% and the viability, T/C (second compound 0.00316 µM, first compound 0.316 µM) was 51.7%. For the same molecule, the viability, T/C (second compound 0.00316 µM, first compound 1 µM) was 45.4%, the viability, T/C (second compound 0.00316 µM, first compound 3.16 µM) was 33.4% and the viability, T/C (second compound 0.00316 µM, first compound 10 µM) was 29.2%. It also gave a viability, T/C [3] of 52.5%, a viability, T/C [4] of 54.5% and a viability, T/C (second compound 0.01 µM, first compound 0.316 µM) of 39.5%. The viability, T/C (second compound 0.01 µM, first compound 1 µM) was 37%, the viability, T/C (second compound 0.01 µM, first compound 3.16 µM) was 28.4% and the viability, T/C (second compound 0.01 µM, first compound 10 µM) was 20%. It also gave a viability, T/C [5] of 39.1%, a viability, T/C [6] of 48.1% and a viability, T/C (second compound 0.0316 µM, first compound 0.316 µM) of 31.2%. The viability, T/C (second compound 0.0316 µM, first compound 1 µM) was 30.2%, the viability, T/C (second compound 0.0316 µM, first compound 3.16 µM) was 24.3% and the viability, T/C (second compound 0.0316 µM, first compound 10 µM) was 16.9%. The viability, T/C [7] was 39.3%, the viability, T/C [8] was 39.4% and the viability, T/C (second compound 0.1 µM, first compound 0.316 µM) was 29.9%. The viability, T/C (second compound 0.1 µM, first compound 1 µM) was 25.8%, the viability, T/C (second compound 0.1 µM, first compound 3.16 µM) was 20.2% and the viability, T/C (second compound 0.1 µM, first compound 10 µM) was 18.8%. The viability, T/C [9] was 37%, the viability, T/C [10] was 34.2% and the viability, T/C (second compound 0.316 µM, first compound 0.316 µM) was 28.9%. For the same molecule, the viability, T/C (second compound 0.316 µM, first compound 1 µM) was 23.1%, the viability, T/C (second compound 0.316 µM, first compound 3.16 µM) was 21.3% and the viability, T/C (second compound 0.316 µM, first compound 10 µM) was 17.9%. The viability, T/C [11] was 34.9%, the viability, T/C [12] was 37.1% and the viability, T/C (second compound 1 µM, first compound 0.316 µM) was 34.2%. For the same molecule, the viability, T/C (second compound 1 µM, first compound 1 µM) was 26.1%, the viability, T/C (second compound 1 µM, first compound 3.16 µM) was 23.3% and the viability, T/C (second compound 1 µM, first compound 10 µM) was 16.6%.
With `CC(C)n1nc(-c2ccc3oc(N)nc3c2)c2c(N)ncnc21` + C=CC(=O)N1CCN(c2nc(OCC3CCCN3C)nc3c(F)c(-c4nc(N)cc(C)c4C(F)(F)F)c(Cl)cc23)C(C)C1 the pIC50 (second compound 0.00316 µM) was 8.49, the pIC50 (second compound 0.01 µM) was 9.35 and the pIC50 (second compound 0.0316 µM) was greater than 9.50. The pIC50 (second compound 0.1 µM) was greater than 9.50, the pIC50 (second compound 0.316 µM) was greater than 9.50 and the pIC50 (second compound 1 µM) was greater than 9.50. It also gave a viability, T/C (second compound 0.00316 µM, first compound 0.000316 µM) of 58.9%, a viability, T/C (second compound 0.00316 µM, first compound 0.001 µM) of 68.7% and a viability, T/C (second compound 0.00316 µM, first compound 0.00316 µM) of 45.9%. For the same molecule, the viability, T/C (second compound 0.00316 µM, first compound 0.01 µM) was 35.2%, the viability, T/C [1] was 27.3% and the viability, T/C [2] was 17.7%. The viability, T/C (second compound 0.01 µM, first compound 0.000316 µM) was 52.1%, the viability, T/C (second compound 0.01 µM, first compound 0.001 µM) was 44.1% and the viability, T/C (second compound 0.01 µM, first compound 0.00316 µM) was 35.5%. It also gave a viability, T/C (second compound 0.01 µM, first compound 0.01 µM) of 25.7%, a viability, T/C [3] of 21.2% and a viability, T/C [4] of 16.9%. It also gave a viability, T/C (second compound 0.0316 µM, first compound 0.000316 µM) of 39.7%, a viability, T/C (second compound 0.0316 µM, first compound 0.001 µM) of 43.7% and a viability, T/C (second compound 0.0316 µM, first compound 0.00316 µM) of 28.2%. For the same molecule, the viability, T/C (second compound 0.0316 µM, first compound 0.01 µM) was 26.2%, the viability, T/C [5] was 17.3% and the viability, T/C [6] was 16.9%. It also gave a viability, T/C (second compound 0.1 µM, first compound 0.000316 µM) of 37.8%, a viability, T/C (second compound 0.1 µM, first compound 0.001 µM) of 32.5% and a viability, T/C (second compound 0.1 µM, first compound 0.00316 µM) of 26.3%. For the same molecule, the viability, T/C (second compound 0.1 µM, first compound 0.01 µM) was 23.8%, the viability, T/C [7] was 17.9% and the viability, T/C [8] was 14.2%. For the same molecule, the viability, T/C (second compound 0.316 µM, first compound 0.000316 µM) was 30.6%, the viability, T/C (second compound 0.316 µM, first compound 0.001 µM) was 38.3% and the viability, T/C (second compound 0.316 µM, first compound 0.00316 µM) was 29.5%. For the same molecule, the viability, T/C (second compound 0.316 µM, first compound 0.01 µM) was 22.3%, the viability, T/C [9] was 17.1% and the viability, T/C [10] was 15.8%. For the same molecule, the viability, T/C (second compound 1 µM, first compound 0.000316 µM) was 27.9%, the viability, T/C (second compound 1 µM, first compound 0.001 µM) was 33.8% and the viability, T/C (second compound 1 µM, first compound 0.00316 µM) was 32.2%. For the same molecule, the viability, T/C (second compound 1 µM, first compound 0.01 µM) was 25.9%, the viability, T/C [11] was 22.5% and the viability, T/C [12] was 16.2%.
